# Values joined by “and” are separate entries in the source; they are usually repeats but may differ in a detail not shown here. Identical values can stand only once.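 These data come from cells grown in 96-well plates and exposed to compound for 48 hours at five concentrations. At the GI50, growth is halved. TGI: total growth inhibition.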
# How the values were obtained:
# Assay in all cases: growth of human tumour cells (NCI), 48 h
# ACHN renal = system: ACHN renal
# IGROV1 ovarian = system: IGROV1 ovarian
# LOX IMVI melanoma = system: LOX IMVI melanoma
# M14 melanoma = system: M14 melanoma
# NCI-H226 lung = system: NCI-H226 lung
# SF-268 CNS = system: SF-268 CNS
# SF-295 CNS = system: SF-295 CNS
# SNB-75 CNS = system: SNB-75 CNS
# UACC-62 melanoma = system: UACC-62 melanoma
# UO-31 renal = system: UO-31 renal
SMILES,GI50 (ACHN renal) [µM],TGI (ACHN renal) [µM],GI50 (IGROV1 ovarian) [µM],TGI (IGROV1 ovarian) [µM],GI50 (LOX IMVI melanoma) [µM],TGI (LOX IMVI melanoma) [µM],GI50 (M14 melanoma) [µM],TGI (M14 melanoma) [µM],GI50 (NCI-H226 lung) [µM],TGI (NCI-H226 lung),GI50 (SF-268 CNS) [µM],TGI (SF-268 CNS) [µM],GI50 (SF-295 CNS) [µM],TGI (SF-295 CNS) [µM],GI50 (SNB-75 CNS) [µM],TGI (SNB-75 CNS),GI50 (UACC-62 melanoma) [µM],TGI (UACC-62 melanoma),GI50 (UO-31 renal) [µM],TGI (UO-31 renal) [µM]
Cc1cc(C)cc(Nc2cc(C)nc3nc(C(F)(F)F)nn23)c1,58.7,> 100,> 100,> 100,> 100,> 100,> 100,> 100,> 100,> 100 µM,44.4,> 100,32.3,> 100,25.2,> 100 µM,> 100,> 100 µM,> 100,> 100
Cc1ccc(C(=O)/C=C/c2ccccc2O)c(C)c1,–,> 100,–,> 100,–,> 100,–,> 100,–,> 100 µM,–,> 100,–,> 100,–,8.01 µM,–,> 100 µM,–,> 100
N#C/C(C(=S)Nc1ccccc1)=C1/NN=C2c3ccccc3C(=O)NN21,35.5,> 100,35.6,> 100,19.9,52.8,19.3,40.6,49.6,> 100 µM,35.3,> 100,17.1,49.5,16.6,43.5 µM,31.5,> 100 µM,33.4,> 100
CCOC(=O)c1c(C)n(Cc2ccc(OC)cc2)c2c1cc(O)c1[nH]c3c(c12)CCCC3,6.72,35.6,3.76,20.5,3.91,16.6,11.8,34.2,15.5,32.9 µM,3.47,18.7,13.7,42.8,4.77,> 100 µM,1.97,4.61 µM,1.84,4.05
COc1cccc(NCc2nnc(Nc3ccc(Cl)cc3)c3ccccc23)c1,1.56,24.4,0.904,6.3,1.11,4.84,0.85,4.69,0.956,6.82 µM,2.05,10.5,1.94,8.25,0.293,5.27 µM,1,5.76 µM,0.608,5.28
COC(=O)C1=C(c2ccc3c(c2)OCO3)O[C@H](c2ccc3c(c2)OCO3)[C@H]1COC(C)=O,–,> 100,–,> 100,–,> 100,–,> 100,–,> 100 µM,–,> 100,–,> 100,–,> 100 µM,–,> 100 µM,–,> 100
NCCCNCCSSCCCCS(=O)O,–,> 100,–,> 100,–,21.6,–,44.2,–,> 100 µM,–,40.6,–,> 100,–,> 100 µM,–,34.8 µM,–,> 100
N#CCCN(c1ccc(/C=C2\N=C(c3ccc(Cl)cc3)OC2=O)cc1)S(=O)(=O)c1ccccc1,–,> 100,–,> 100,–,> 100,–,> 100,–,> 100 µM,–,> 100,–,> 100,–,> 100 µM,–,> 100 µM,–,> 100
C[C@]12CC[C@@H]3c4ccc(O)cc4C[C@@H](CCCCCCCCCS(=O)CCCC(F)(F)C(F)(F)F)[C@H]3[C@@H]1CC[C@@H]2O (some centres undefined),> 100,> 100,> 100,> 100,> 100,> 100,> 100,> 100,> 100,> 100 µM,> 100,> 100,> 100,> 100,> 100,> 100 µM,> 100,> 100 µM,> 100,> 100
CC12CCCC(CC(=O)c3[nH]c4ccccc4c31)C2 (centres undefined),0.856,> 100,0.793,> 100,0.615,20.9,0.399,17.3,4.23,33.3 µM,1.94,> 65.2,0.508,7.37,0.204,21.7 µM,0.491,> 60.3 µM,2.4,> 100
COc1cc(Cc2cc(OC)c(OC)c(OC)c2)ccc1O,–,> 100,–,> 100,–,> 100,–,> 100,–,> 100 µM,–,> 100,–,28.6,–,28.6 µM,–,> 100 µM,–,> 100
Cc1ccc(NC(=O)C2C(=O)N(c3ccc(C)c(C)c3)C(=O)/C2=N/O)cc1C (centres undefined),–,> 100,–,> 100,–,38.3,–,> 100,–,> 100 µM,–,> 100,–,> 100,–,> 100 µM,–,> 100 µM,–,> 100
O=c1[nH]c(=O)n(C2CC(O)C(CS)O2)cc1F (centres undefined),–,> 92.4,–,> 100,–,> 100,–,> 100,–,> 100 µM,–,> 100,–,> 100,–,> 100 µM,–,> 100 µM,–,> 100
COc1ccc(C(=O)/C=C/c2cccnc2Nc2cc(OC)c(OC)c(OC)c2)cc1,1.9,4.06,3.03,21.3,0.738,2.28,2.55,11.9,2.51,8.86 µM,3.04,14.8,1.71,18.9,3.4,17.6 µM,1.71,4.38 µM,1.17,3.04
COC(=O)c1cc2c(c(C(=O)OC)c1O)C(=O)C=CC2=O,> 9.1,> 46.3,> 9.1,> 58.6,> 9.1,> 56.9,> 9.1,> 66.9,18.5,> 9.1 µM and 34.7 µM,> 9.1,> 55.2,> 9.1,> 56.3,–,> 9.1 µM and 31.8 µM,18,> 9.1 µM and 33.7 µM,> 9.1,> 56.9
CN1C(NC(=O)c2ccc(Cl)nc2)=NS(=O)(=O)c2cc(Cl)ccc21,> 100,> 100,> 100,> 100,> 100,> 100,> 100,> 100,> 100,> 100 µM,> 100,> 100,> 100,> 100,> 100,> 100 µM,> 100,> 100 µM,> 100,> 100

# From PubChem BioAssay (NCI)
